# From paper PMC9253107, “Engineering of ultraID, a compact and hyperactive enzyme for proximity-dependent biotinylation in living cells” (Communications Biology, 2022)
# Biological target: T1, microID (BioID2 [2-171]); with L41P = ultraID (Aquifex aeolicus, UniProt O66837, R40G/L41P)
# T1 construct: gene birA; pET22b, E. coli BL21(DE3), IMAC purified
# Experiment: ELISA-based biotinylation assay, streptavidin-alkaline phosphatase
# Type: biochemical
# Conditions: 50 µM biotin, 2.5 mM ATP, 5 mM MgCl2, pH 7.5, 37 °C, 10 min; acceptor human serum albumin
# T1 sequence (O66837 entry or part of it R40G/L41P): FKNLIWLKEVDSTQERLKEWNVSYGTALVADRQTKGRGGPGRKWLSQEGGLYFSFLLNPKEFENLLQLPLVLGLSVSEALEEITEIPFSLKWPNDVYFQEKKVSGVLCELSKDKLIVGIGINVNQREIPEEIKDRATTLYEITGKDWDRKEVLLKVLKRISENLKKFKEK
compound,measurement,value
O=C(O)CCCC[C@@H]1SC[C@@H]2NC(=O)N[C@@H]21 [biotin],"ELISA-based biotinylation assay, streptavidin-alkaline phosphatase",combined R40G/L41P mutations showed the highest activity of all tested variants
